Drawing on patent US5624902A, “Peptide inhibitors of calmodulin” (Torrey Pines Institute for Molecular Studies, priority 1995, dated 1997), this text covers inhibition and IC50 for 24 compounds.

Each structure is given as a SMILES string. Square brackets hold non-standard residues; d marks the D form. Peptide text beside a SMILES is read from it. Some results are limits rather than exact numbers.

The target of this experiment is calmodulin (Homo sapiens, UniProt P0DP23). The experiment is described as follows: calcium-dependent phosphodiesterase assay (inhibition of calmodulin activity). In kind it is biochemical. The following applies: for inhibition at 50 µM: inhibition of calmodulin activation of phosphodiesterase at 50 μM peptide, PDE without calmodulin = 100%, Calmo = 0%; for IC50: concentration inhibiting 50% of calmodulin activity, assayed at 75 μM, 50 μM and 12.5 μM.

Experimental: In this assay, calmodulin can be assayed by its ability to stimulate phosphodiesterase activity as determined by a two-step assay procedure illustrated by reactions (1) and (2).
During the first step of the assay cyclic adenosine 3'5'-monophosphate (cAMP) is incubated with calcium-activated phosphodiesterase (Cal-PDE), which hydrolyses the 3' bond producing adenosine 5'-monophosphate (5'-AMP). During the second step 5'-AMP is quantitatively converted into adenosine and inorganic phosphate (Pi) through the action of a 5'-nucleotidase. […] The amount of Pi formed is directly related to the phosphodiesterase activity which depends on the level of activation by calmodulin.
To sample assay tubes were added the following components: assay buffer, 25 μl; CaCl2, 5 μl; 5'-nucleotidase, 7.5 μl (stock solution is 10 units/ml); calmodulin 5 units; calmodulin inhibitor peptides to obtain the desired final concentration of 50 μM. The volume was then made up to 200 μl with water. Control blanks were prepared replacing the peptides with water. The added components were thoroughly mixed and the tubes incubated at 30° C. for 10 min. […] The samples were centrifuged to remove the protein precipitate and the 50 μl of the supernatant was withdrawn for phosphate measurement. […] The absorbance of the solution were read at 660 nm using water as a blank, identified as control "Calmo," as discussed in more detail below.
These three peptides commonly used in every assay as control of reproducibility of the assay.
In addition to the calcium-dependent phosphodiesterase assay data, IC50 values were determined for many of the peptides. The assay carried out for the determination in the IC50 values differed from the above screening assay by the concentration of the peptides being tested.
(2) W13: N-(4-aminobutyl)-5-chloro-2-naphtalenesulfonamide; (3) TFP: trifluoperazine; (4) Calmidasolium: (1-[bis-(4-chlorophenyl)methyl]-3[-2-(2,4-dichlorophenyl)-2[(2,4-dichlorophenyl)methoxy]-ethyl]-1H-imidazolium chloride. The IC50 values were calculated using sigmoidal curve software (Graphpad, ISI, San Diego) using the % inhibition at different mixture concentrations (see attached protocol for determination of % inhibition).

`CC(=O)N[C@H](CC(C)C)C(=O)N[C@H](CCC(N)=O)C(=O)N[C@H](CCCNC(=N)N)C(=O)N[C@H](Cc1c[nH]cn1)C(=O)N[C@H](Cc1c[nH]cn1)C(=O)N[C@H](CCCNC(=N)N)C(N)=O` [Ac-(D)Leu-(D)Gln-(D)Arg-(D)His-(D)His-(D)Arg-NH2] (Ac-[dL][dQ][dR][dH][dH][dR]-NH2): the inhibition (in general, the drop in the measured response relative to a control, in per cent) at 50 µM turned out to be 63.2%.

On to `CC(=O)N[C@H](CC(C)C)C(=O)N[C@H](CCC(N)=O)C(=O)N[C@H](CCCNC(=N)N)C(=O)N[C@H](Cc1c[nH]cn1)C(=O)N[C@H](Cc1c[nH]cn1)C(=O)N[C@H](Cc1c[nH]c2ccccc12)C(N)=O` [Ac-(D)Leu-(D)Gln-(D)Arg-(D)His-(D)His-(D)Trp-NH2] (Ac-[dL][dQ][dR][dH][dH][dW]-NH2), for which the inhibition at 50 µM stood at 79%. Turning to `CC(=O)N[C@H](CC(C)C)C(=O)N[C@H](CCC(N)=O)C(=O)N[C@H](CCCNC(=N)N)C(=O)N[C@H](Cc1c[nH]cn1)C(=O)N[C@H](CC(C)C)C(=O)N[C@H](CCCNC(=N)N)C(N)=O` [Ac-(D)Leu-(D)Gln-(D)Arg-(D)His-(D)Leu-(D)Arg-NH2] (Ac-[dL][dQ][dR][dH][dL][dR]-NH2), the inhibition at 50 µM amounted to 64.5%. As to `CC(=O)N[C@H](CC(C)C)C(=O)N[C@H](CCC(N)=O)C(=O)N[C@H](CCCNC(=N)N)C(=O)N[C@H](Cc1c[nH]cn1)C(=O)N[C@H](CC(C)C)C(=O)N[C@H](Cc1c[nH]c2ccccc12)C(N)=O` [Ac-(D)Leu-(D)Gln-(D)Arg-(D)His-(D)Leu-(D)Trp-NH2] (Ac-[dL][dQ][dR][dH][dL][dW]-NH2), the inhibition at 50 µM amounted to 44.7%. In the case of `CC[C@@H](C)[C@@H](NC(=O)[C@@H](CCCNC(=N)N)NC(=O)[C@@H](CCC(N)=O)NC(=O)[C@@H](CC(C)C)NC(C)=O)C(=O)N[C@H](Cc1c[nH]cn1)C(=O)N[C@H](CCCNC(=N)N)C(N)=O` [Ac-(D)Leu-(D)Gln-(D)Arg-(D)Ile-(D)His-(D)Arg-NH2] (Ac-[dL][dQ][dR][dI][dH][dR]-NH2), the IC50 (in general, the concentration that gives 50% inhibition) was > 50 µM and the inhibition at 50 µM amounted to 21.1%. The corresponding values for `CC[C@@H](C)[C@@H](NC(=O)[C@@H](CCCNC(=N)N)NC(=O)[C@@H](CCC(N)=O)NC(=O)[C@@H](CC(C)C)NC(C)=O)C(=O)N[C@H](Cc1c[nH]cn1)C(=O)N[C@H](Cc1c[nH]c2ccccc12)C(N)=O` [Ac-(D)Leu-(D)Gln-(D)Arg-(D)Ile-(D)His-(D)Trp-NH2] (Ac-[dL][dQ][dR][dI][dH][dW]-NH2) are 40 µM and 34.2%. `CC[C@@H](C)[C@@H](NC(=O)[C@@H](CCCNC(=N)N)NC(=O)[C@@H](CCC(N)=O)NC(=O)[C@@H](CC(C)C)NC(C)=O)C(=O)N[C@H](CC(C)C)C(=O)N[C@H](CCCNC(=N)N)C(N)=O` [Ac-(D)Leu-(D)Gln-(D)Arg-(D)Ile-(D)Leu-(D)Arg-NH2] (Ac-[dL][dQ][dR][dI][dL][dR]-NH2): the concentration for half-maximal inhibition (IC50) is > 50 µM and the inhibition at 50 µM was -13.2%.

In the case of `CC[C@@H](C)[C@@H](NC(=O)[C@@H](CCCNC(=N)N)NC(=O)[C@@H](CCC(N)=O)NC(=O)[C@@H](CC(C)C)NC(C)=O)C(=O)N[C@H](CC(C)C)C(=O)N[C@H](Cc1c[nH]c2ccccc12)C(N)=O` [Ac-(D)Leu-(D)Gln-(D)Arg-(D)Ile-(D)Leu-(D)Trp-NH2] (Ac-[dL][dQ][dR][dI][dL][dW]-NH2), the IC50 was > 50 µM and the inhibition at 50 µM amounted to 44.5%.

Consider `CC[C@@H](C)[C@@H](NC(=O)[C@@H](CCC(N)=O)NC(=O)[C@@H](CC(C)C)NC(C)=O)C(=O)N[C@H](Cc1c[nH]cn1)C(=O)N[C@H](Cc1c[nH]cn1)C(=O)N[C@H](CCCNC(=N)N)C(N)=O` [Ac-(D)Leu-(D)Gln-(D)Ile-(D)His-(D)His-(D)Arg-NH2] (Ac-[dL][dQ][dI][dH][dH][dR]-NH2), for which the inhibition at 50 µM was 43.4%. Regarding `CC[C@@H](C)[C@@H](NC(=O)[C@@H](CCC(N)=O)NC(=O)[C@@H](CC(C)C)NC(C)=O)C(=O)N[C@H](Cc1c[nH]cn1)C(=O)N[C@H](Cc1c[nH]cn1)C(=O)N[C@H](Cc1c[nH]c2ccccc12)C(N)=O` [Ac-(D)Leu-(D)Gln-(D)Ile-(D)His-(D)His-(D)Trp-NH2] (Ac-[dL][dQ][dI][dH][dH][dW]-NH2), the IC50 was determined as 76 µM and the inhibition at 50 µM is 60.5%. In the case of `CC[C@@H](C)[C@@H](NC(=O)[C@@H](CCC(N)=O)NC(=O)[C@@H](CC(C)C)NC(C)=O)C(=O)N[C@H](Cc1c[nH]cn1)C(=O)N[C@H](CC(C)C)C(=O)N[C@H](CCCNC(=N)N)C(N)=O` [Ac-(D)Leu-(D)Gln-(D)Ile-(D)His-(D)Leu-(D)Arg-NH2] (Ac-[dL][dQ][dI][dH][dL][dR]-NH2), the inhibition at 50 µM amounted to 28.9%. In the case of `CC[C@@H](C)[C@@H](NC(=O)[C@@H](CCC(N)=O)NC(=O)[C@@H](CC(C)C)NC(C)=O)C(=O)N[C@H](Cc1c[nH]cn1)C(=O)N[C@H](CC(C)C)C(=O)N[C@H](Cc1c[nH]c2ccccc12)C(N)=O` [Ac-(D)Leu-(D)Gln-(D)Ile-(D)His-(D)Leu-(D)Trp-NH2] (Ac-[dL][dQ][dI][dH][dL][dW]-NH2), the inhibition at 50 µM came to 46%. Turning to `CC[C@@H](C)[C@@H](NC(=O)[C@@H](CCC(N)=O)NC(=O)[C@@H](CC(C)C)NC(C)=O)C(=O)N[C@@H](C(=O)N[C@H](Cc1c[nH]cn1)C(=O)N[C@H](CCCNC(=N)N)C(N)=O)[C@H](C)CC` [Ac-(D)Leu-(D)Gln-(D)Ile-(D)Ile-(D)His-(D)Arg-NH2] (Ac-[dL][dQ][dI][dI][dH][dR]-NH2), the inhibition at 50 µM amounted to 43.4%. On to `CC[C@@H](C)[C@@H](NC(=O)[C@@H](CCC(N)=O)NC(=O)[C@@H](CC(C)C)NC(C)=O)C(=O)N[C@@H](C(=O)N[C@H](Cc1c[nH]cn1)C(=O)N[C@H](Cc1c[nH]c2ccccc12)C(N)=O)[C@H](C)CC` [Ac-(D)Leu-(D)Gln-(D)Ile-(D)Ile-(D)His-(D)Trp-NH2] (Ac-[dL][dQ][dI][dI][dH][dW]-NH2), for which the inhibition at 50 µM turned out to be 35.5%. On to `CC[C@@H](C)[C@@H](NC(=O)[C@@H](CCC(N)=O)NC(=O)[C@@H](CC(C)C)NC(C)=O)C(=O)N[C@@H](C(=O)N[C@H](CC(C)C)C(=O)N[C@H](CCCNC(=N)N)C(N)=O)[C@H](C)CC` [Ac-(D)Leu-(D)Gln-(D)Ile-(D)Ile-(D)Leu-(D)Arg-NH2] (Ac-[dL][dQ][dI][dI][dL][dR]-NH2), for which the IC50 was > 50 µM and the inhibition at 50 µM was 15.8%.

As to `CC[C@@H](C)[C@@H](NC(=O)[C@@H](CCC(N)=O)NC(=O)[C@@H](CC(C)C)NC(C)=O)C(=O)N[C@@H](C(=O)N[C@H](CC(C)C)C(=O)N[C@H](Cc1c[nH]c2ccccc12)C(N)=O)[C@H](C)CC` [Ac-(D)Leu-(D)Gln-(D)Ile-(D)Ile-(D)Leu-(D)Trp-NH2] (Ac-[dL][dQ][dI][dI][dL][dW]-NH2), the IC50 was > 50 µM and the inhibition at 50 µM worked out at 47.4%. In the case of `CC(=O)N[C@H](CC(C)C)C(=O)N[C@H](Cc1c[nH]c2ccccc12)C(=O)N[C@H](CCCNC(=N)N)C(=O)N[C@H](Cc1c[nH]cn1)C(=O)N[C@H](Cc1c[nH]cn1)C(=O)N[C@H](CCCNC(=N)N)C(N)=O` [Ac-(D)Leu-(D)Trp-(D)Arg-(D)His-(D)His-(D)Arg-NH2] (Ac-[dL][dW][dR][dH][dH][dR]-NH2), the inhibition at 50 µM stood at 57.9%. On the same count and under the same terms, in the case of `CC(=O)N[C@H](CC(C)C)C(=O)N[C@H](Cc1c[nH]c2ccccc12)C(=O)N[C@H](CCCNC(=N)N)C(=O)N[C@H](Cc1c[nH]cn1)C(=O)N[C@H](Cc1c[nH]cn1)C(=O)N[C@H](Cc1c[nH]c2ccccc12)C(N)=O` [Ac-(D)Leu-(D)Trp-(D)Arg-(D)His-(D)His-(D)Trp-NH2] (Ac-[dL][dW][dR][dH][dH][dW]-NH2) it was 36.8%.

In the case of `CC(=O)N[C@H](CC(C)C)C(=O)N[C@H](Cc1c[nH]c2ccccc12)C(=O)N[C@H](CCCNC(=N)N)C(=O)N[C@H](Cc1c[nH]cn1)C(=O)N[C@H](CC(C)C)C(=O)N[C@H](CCCNC(=N)N)C(N)=O` [Ac-(D)Leu-(D)Trp-(D)Arg-(D)His-(D)Leu-(D)Arg--NH2] (Ac-[dL][dW][dR][dH][dL][dR]-NH2), the IC50 was > 50 µM and the inhibition at 50 µM amounted to 39.5%. For the compound `CC(=O)N[C@H](CC(C)C)C(=O)N[C@H](Cc1c[nH]c2ccccc12)C(=O)N[C@H](CCCNC(=N)N)C(=O)N[C@H](Cc1c[nH]cn1)C(=O)N[C@H](CC(C)C)C(=O)N[C@H](Cc1c[nH]c2ccccc12)C(N)=O` [Ac-(D)Leu-(D)Trp-(D)Arg-(D)His-(D)Leu-(D)Trp-NH2] (Ac-[dL][dW][dR][dH][dL][dW]-NH2), the IC50 was ≤ 10 µM and the inhibition at 50 µM came out at 90.8%. For `CC[C@@H](C)[C@@H](NC(=O)[C@@H](CCCNC(=N)N)NC(=O)[C@@H](Cc1c[nH]c2ccccc12)NC(=O)[C@@H](CC(C)C)NC(C)=O)C(=O)N[C@H](Cc1c[nH]cn1)C(=O)N[C@H](CCCNC(=N)N)C(N)=O` [Ac-(D)Leu-(D)Trp-(D)Arg-(D)Ile-(D)His-(D)Arg-NH2] (Ac-[dL][dW][dR][dI][dH][dR]-NH2), the IC50 was found to be 32 µM and the inhibition at 50 µM was determined as 68.4%. As to `CC[C@@H](C)[C@@H](NC(=O)[C@@H](CCCNC(=N)N)NC(=O)[C@@H](Cc1c[nH]c2ccccc12)NC(=O)[C@@H](CC(C)C)NC(C)=O)C(=O)N[C@H](Cc1c[nH]cn1)C(=O)N[C@H](Cc1c[nH]c2ccccc12)C(N)=O` [Ac-(D)Leu-(D)Trp-(D)Arg-(D)Ile-(D)His-(D)Trp-NH2] (Ac-[dL][dW][dR][dI][dH][dW]-NH2), the inhibition at 50 µM was 52.6%. Consider `CC[C@@H](C)[C@@H](NC(=O)[C@@H](CCCNC(=N)N)NC(=O)[C@@H](Cc1c[nH]c2ccccc12)NC(=O)[C@@H](CC(C)C)NC(C)=O)C(=O)N[C@H](CC(C)C)C(=O)N[C@H](CCCNC(=N)N)C(N)=O` [Ac-(D)Leu-(D)Trp-(D)Arg-(D)Ile-(D)Leu-(D)Arg-NH2] (Ac-[dL][dW][dR][dI][dL][dR]-NH2), for which the IC50 is 15 µM and the inhibition at 50 µM was 107%. Regarding `CC[C@@H](C)[C@@H](NC(=O)[C@@H](CCCNC(=N)N)NC(=O)[C@@H](Cc1c[nH]c2ccccc12)NC(=O)[C@@H](CC(C)C)NC(C)=O)C(=O)N[C@H](CC(C)C)C(=O)N[C@H](Cc1c[nH]c2ccccc12)C(N)=O` [Ac-(D)Leu-(D)Trp-(D)Arg-(D)Ile-(D)Leu-(D)Trp-NH2] (Ac-[dL][dW][dR][dI][dL][dW]-NH2), the IC50 is 15 µM and the inhibition at 50 µM was found to be 101%.
